These results are taken from patent US5627171A, “Sphingosine-1-phosphate/trimethylsphingosine composition” (Oncomembrane, Inc., priority 1994, dated 1997).

One test relates to B16BL6 melanoma cells. On the set-up: key: +++: + graded effectiveness; ++: + graded effectiveness; + graded effectiveness; - not effective. The note with it: cited from earlier work.
Another test deals with platelet activation. On the set-up: key: +++: + graded effectiveness; ++: + graded effectiveness; + graded effectiveness; - not effective. The conditions noted are these: cited from earlier work.
The test system of another test is protein kinase C. Set-up: key: +++: + graded effectiveness; ++: + graded effectiveness; + graded effectiveness; - not effective. The conditions noted are these: cited from earlier work.
The next test relates to BL6 cell line. Kind of test: Spontaneous metastasis model: subcutaneous BL6 cells, lung colonization. The note with it: mice, BL6 cells s.c.; liposomes i.v. on days 5, 10, 15, 20, 25, 30; primary tumor excised day 21; assessed day 35. The format is in vivo. The procedure:
As an example, mice were injected subcutaneously with the metastatic and invasive BL6 cell line (Hart et al., Amer. J. Path., 97, 587, 1979; Poote et al., Canc. Res., 42, 2770, 1982) (1×10^5 cells in 0.05 ml of Dulbecco-modified Eagle's medium). A single intravenous injection of the 10:1 liposomal TMS/Sph-1-P composition described hereinabove was administered on days 5, 10, 15, 20, 25 and 30. The primary tumor was excised on day 21 and lung colonization was assessed on day 35. […] Controls comprised liposomes containing TMS alone, liposomes containing Sph-1-P alone, liposomes containing medium or medium alone with no liposomes.
Then the instant composition encapsulated in liposomes is administered to the hosts, see FIG. 9A.
(§1) In either model, the number of lung tumor colonies is ascertained macroscopically and microscopically following a course of repeated liposome administration.

The subject of the next test is tumor cells. Kind of test: Experimental metastasis model: intravenous injection of tumor cells, lung tumor colonies. The conditions noted are these: tumor cells i.v.; number of lung tumor colonies. The test is classed as in vivo.
Description: as §1

The mark [1] stands for this setting: preincubation with free derivative.

Where two headings read alike, the source gives them in different places.

Turning to `CCCCCCCCCCCCCC#C[C@@H](O)[C@H](CO)[N+](C)(C)C` [4-alkyn-TMS], in the test with B16BL6 melanoma cells (no footnote on formulation), the Inhibition of metastasis entry is reported as “+”. The “Inhibition of PA” value in the test with platelet activation is given as “++”. Also, the PKC inhibition result in the test on protein kinase C is “+++”.

Regarding `CCCCCCCCCCCCCC(F)/C=C/[C@H](CO)[N+](C)(C)C` (some centres unmarked) [5F-TMS], the Inhibition of metastasis entry with B16BL6 melanoma cells (no footnote on formulation) is “+++”. For the same compound, the “Inhibition of PA” value with platelet activation is reported as “+++”. Further, in the test on protein kinase C, the PKC inhibition entry is “+++”.

Take `C[N+](C)(C)[C@@H](CO)[C@H](O)/C=C/CCCCCCCCCCCCC(=O)O` [Carboxy TMS]: the Inhibition of metastasis result in the test with B16BL6 melanoma cells (setting [1]) is “-”. The “Inhibition of PA” value with platelet activation is on record as “-”. Further, the PKC inhibition entry in the test on protein kinase C is on record as “-”.

With `CCCCCCCCCCCCCCC[C@@H](O)[C@H](CO)[N+](C)(C)C` [DHTMS], the Inhibition of metastasis entry in the test with B16BL6 melanoma cells (liposomal formulation was used) is given as “+”. Moreover, the “Inhibition of PA” value in the test on platelet activation is “++”. The PKC inhibition entry in the test on protein kinase C is recorded as “+++”.

`COC(=O)CCCCCCCCCCCC/C=C/[C@@H](O)[C@H](CO)[N+](C)(C)C` [Methylcarboxy TMS]: the Inhibition of metastasis result with B16BL6 melanoma cells (setting [1]) is on record as “-”. In addition, in the test on platelet activation, the “Inhibition of PA” value is on record as “-”. Further, the PKC inhibition entry with protein kinase C was “-”.

With `C[N+](C)(C)[C@@H](CO)[C@H](O)c1ccccc1` [NTPS], the Inhibition of metastasis result in the test with B16BL6 melanoma cells (setting [1]) is reported as “-”. Moreover, the “Inhibition of PA” value in the test with platelet activation is “-”. In addition, the PKC inhibition entry with protein kinase C is “-”.

With `CCCCCCCCCCCCC/C=C/[C@@H](O)[C@@H](N)COP(=O)(O)O` [Sph-1-P, sphingosine-1-phosphate], in the test on BL6 cell line, the “Lung colony number (lung colonization)” value is given as “no different in effect from medium alone or liposomes containing medium only”.

Consider `CCCCCCCCCCCCC/C=C/[C@@H](O)[C@H](CO)[N+](C)(C)C` [TMS, N,N,N-trimethylsphingosine], for which, in the test with tumor cells, the “Effect in the experimental metastasis model” value was “strong effect”. In addition, in the test with B16BL6 melanoma cells (free derivative and liposomal formulation were used), the Inhibition of metastasis entry is “+++”. For the same compound, the “Inhibition of PA” value with platelet activation is “+++”. In addition, the PKC inhibition result in the test on protein kinase C is “+++”.
